System: IL-4 induced germline ε transcription
Assay: A5T4 reporter line screening of single cell clones (+Dox vs -Dox, IL-4 stimulated, GFP by FACS)
Type: cell-based, human
Details: geometric mean GFP fluorescence +IL-4/+Dox to +IL-4/-Dox; IL-4 60 U/mL, Dox 10 ng/ml; library clone
Source text: Peptide BR10A1 wt was identified by screening a retroviral library of random peptide 20-mers for the ability to inhibit IL-4 induced germline ε transcription using the HBEGF2a/diphtheria dual reporter phenotypic screening system described in WO 01/31232. To construct the random library, A5T4 reporter cells (described in more detail below) were infected with an infectious retroviral library of random peptide 20-mers (prepared as described in WO 97/27213; see also WO 01/34806 at page 39, line 36 through page 40, line 19). The retroviral vector used includes a gene encoding blue fluorescent protein (BFP) fused upstream of the region encoding the random peptide via a linker region encoding an α-helical peptide linker (expression fusion product is referred to as “BFP-peptide”). Expression of the BFP-peptide product is controlled by a promoter sensitive to the tetracycline-regulated transactivator such that expression of the BFP-peptide is regulated by tetracycline (Tet) or doxycycline (Dox). See U.S. patent application Ser. No. 10/096,339, entitled “Methods and Compositions for Screening for Altered Cellular Phenotypes,” filed on Mar. 8, 2002. […]

Sequence “MQRRESCITRSVEEGWGLFYLGP (peptide encoded by random oligo-BR10A1wt) [wild-type peptide from random library, expressed in cells as BFP-peptide fusion]” has a Reporter Ratio of 1.26.
